The values below come from US4578395A, “Certain aralkylaminoalkyl esters of 1,4 dihydropyridines as antihypertensive” (Teijin Limited, priority 1983, dated 1986).

For one data set, the system named is conscious rats. Briefly: Antihypertensive activity by oral administration in conscious rats. The data set is classed as in vivo, Male Wistar rats. Particulars: 10 mg/kg oral. The protocol:
When one hour or more passed after the rats were aroused, they were administered the test compound orally.
The blood pressure in the femoral artery was recorder and changes in the mean blood pressure were obtained from the following equation. [formula]

The conditions of data set [1]: prior art; cited from earlier work.

In the case of `CCOC(=O)C1=C(C)NC(C)=C(C(=O)OC)C1c1cccc(Cl)c1Cl` (centres unmarked) [Felodipine, 4-(2,3-dichlorophenyl)-2,6-dimethyl-1,4-dihydropyridine-3,5-dicarboxylic acid-3-methyl ester-5-ethyl ester, reference compound], the “Changes in mean blood pressure” value with conscious rats (after 30 min) is on record as -34 mmHg; with conscious rats (after 60 min) it was -27 mmHg; in the data set on conscious rats (after 90 min) it was -24 mmHg; in the data set on conscious rats (after 2 hr) it was -22 mmHg; in the data set with conscious rats (after 3 hr), -17 mmHg; with conscious rats (after 5 hr) it was -10 mmHg. Moreover, in the data set on conscious rats (after 7 hr), the “Changes in mean blood pressure” value was -5 mmHg. In addition, the “solubility in water” value in data set [1] was “very purely soluble in water”.
